Measurements as given in patent US11332459B2 (TEIJIN PHARMA LIMITED, priority 2017, dated 2022).

Biological target: T1, human TRPC6 (Homo sapiens, UniProt Q9Y210)
T1 construct: expressed in transfected cells
T1 sequence (Q9Y210 1-931): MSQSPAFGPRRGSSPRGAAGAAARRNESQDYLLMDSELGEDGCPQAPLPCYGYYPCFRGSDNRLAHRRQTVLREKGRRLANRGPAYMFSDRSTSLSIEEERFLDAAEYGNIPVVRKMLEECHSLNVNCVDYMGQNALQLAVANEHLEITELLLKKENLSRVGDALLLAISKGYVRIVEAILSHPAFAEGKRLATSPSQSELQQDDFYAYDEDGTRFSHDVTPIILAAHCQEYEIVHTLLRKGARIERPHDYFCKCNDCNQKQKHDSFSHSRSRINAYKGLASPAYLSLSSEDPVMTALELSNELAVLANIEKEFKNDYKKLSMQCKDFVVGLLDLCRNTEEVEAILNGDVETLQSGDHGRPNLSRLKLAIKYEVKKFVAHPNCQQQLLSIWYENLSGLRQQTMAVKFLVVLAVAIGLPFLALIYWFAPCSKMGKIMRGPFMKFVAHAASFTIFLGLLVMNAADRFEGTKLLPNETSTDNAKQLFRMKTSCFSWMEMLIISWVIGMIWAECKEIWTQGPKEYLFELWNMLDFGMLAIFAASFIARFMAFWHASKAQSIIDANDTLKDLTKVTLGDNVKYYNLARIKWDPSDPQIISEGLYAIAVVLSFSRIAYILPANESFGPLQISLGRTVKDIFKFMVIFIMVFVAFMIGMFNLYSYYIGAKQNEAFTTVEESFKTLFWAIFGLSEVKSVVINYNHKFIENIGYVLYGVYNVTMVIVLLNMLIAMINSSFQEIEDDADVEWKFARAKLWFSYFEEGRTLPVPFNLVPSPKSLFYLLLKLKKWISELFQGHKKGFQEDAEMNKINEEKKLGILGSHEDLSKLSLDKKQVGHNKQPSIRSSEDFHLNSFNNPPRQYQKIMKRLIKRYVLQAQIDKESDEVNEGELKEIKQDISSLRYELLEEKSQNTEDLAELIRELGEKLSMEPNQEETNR
Assay: TRPC6 calcium flux assay (FLIPR, OAG-stimulated calcium influx)
Type: cell-based
Settings: HEK293 cells stably transfected with human TRPC6, read-out: hTRPC6 Potency
Experimental: Biological Example 1 TRPC6 Calcium Flux Assay
Potency of TRPC6 (Transient receptor potential channel family C6) inhibitors were measured by their inhibition of Calcium influx trigged by […] (1-Oleoyl-2-acetyl-sn-glycerol, Millipore Sigma, O6754) stimulation on HEK293 cells stablely transfected with human TRPC6 using a FLIPR tetra system. Cells were grown in a humidified environment at 37° C. under 5% CO2 using the growth medium with the following selective reagents (Dulbecco's Modified Eagle's Medium (DMEM) high glucose, 10% Fetal Bovine Serum, 1×PSGlu (penicillin-streptomycin glutamine), 1×NEAA (Non-essential amino acid), 1× Na Pyruvate and 200 ug/ml Hygromycin). For general passage, cells were grown to 70-90% confluency; the media was removed, and the cells were gently washed 2 times with calcium and magnesium free PBS (phosphate-buffered saline). Trypsin (3 mL) was applied for 5 minutes at 37° C. The cells were dislodged by rapping flask against base of a hand and 7 mL of growth medium was added to deactivate trypsin and re-suspend cells. The usual splitting schedule was 1:5 every 2-3 days.
Cells were plated the day before the assay, plating cell density is 1.0-1.5×10^4/25 μl/well in poly-D-lysine (PDL) coated 384-well plates using either multichannel pipettes or multidrop. These cells were first incubated with fluorescence dye at room temperature for 90-120 minutes after they were grown on PDL-coated 384-well black plates overnight (Dye loading buffer 10 ml example: 9 mL assay buffer, 1 mL, 10×PBX signal enhancer, 10 μL Calcium indicator). The cells were incubated with a dose of compounds for 25 minutes before being stimulated with TRPC6 agonist OAG. The OAG solution was prepared by adding OAG into assay buffer (Ca ringer solution base: 10 mM HEPES (4-(2-hydroxyethyl)-1-piperazine-ethanesulfonic acid), 4 mM MgCl2, 120 mM NaCl, 5 mM KCl, pH=7.2 @25° C.)+0.1% BSA+2 mM CaCl2) to the concentration of 0.2 mM/2% DMSO, which achieves a final on cell concentration of 50 uM/0.5% DMSO. 12.5 uL OAG mixture was added and the activation of the TRPC6 channel was measured by the change of intracellular Calcium levels on FLIPR terra system.
Data was acquired by measuring the fluorescent peak signal subtracted from the background during the 180 second imaging frame. Each data point is further normalized to 100% of OAG triggered signal vs. buffer. Table 16 provides the IC50 for each compound, which data is obtained by plotting peak signal over the compound dose.

| Compound | IC50 |
| --- | --- |
| 4-((2-((3R,4R)-3-amino-4-hydroxypiperidin-1-yl)-1H-benzo[d]imidazol-1-yl)methyl)benzonitrile compound with 4-((2-((3S,4S)-3-amino-4-hydroxypiperidin-1-yl)-1H-benzo[d]imidazol-1-yl)methyl)benzonitrile (1:1) dihydrochloride [Example 155] | 16.2 nM |
| CCN(CC(C)C#N)C(=O)Cn1c(N2CC[C@@H](F)[C@H](N)C2)nc2cc(F)c(F)cc21 (mixture of isomers) [Example 237, 2-(2-((3R,4R)-3-amino-4-fluoropiperidin-1-yl)-5,6-difluoro-1H-benzo[d]imidazol-1-yl)-N-(2-cyanopropyl)-N-ethylacetamide] | 223 nM |
| CN1CCC(n2c(N3CC[C@@H](F)[C@H](N)C3)nc3cc(F)c(F)cc32)C1=O (mixture of isomers) [Example 238, 3-(2-((3R,4R)-3-amino-4-fluoropiperidin-1-yl)-5,6-difluoro-1H-benzo[d]imidazol-1-yl)-1-methylpyrrolidin-2-one] | 185 nM |
| N[C@@H]1CN(c2nc3cc(F)c(F)cc3n2C2CCCN(c3ccccc3)C2=O)CC[C@H]1F (mixture of isomers) [Example 239, 3-(2-((3R,4R)-3-amino-4-fluoropiperidin-1-yl)-5,6-difluoro-1H-benzo[d]imidazol-1-yl)-1-phenylpiperidin-2-one] | 562 nM |
| N[C@@H]1CN(c2nc3cc(F)c(F)cc3n2C2CCN(c3ccc(Cl)cc3)C2=O)CC[C@H]1F (mixture of isomers) [Example 240, 3-(2-((3R,4R)-3-amino-4-fluoropiperidin-1-yl)-5,6-difluoro-1H-benzo[d]imidazol-1-yl)-1-(4-chlorophenyl)pyrrolidin-2-one] | 10.7 nM |
| CC(c1cccc(C#N)c1)n1c(N2CC[C@@H](F)[C@H](N)C2)nc2cc(F)c(F)cc21 (mixture of isomers) [Example 302, 3-(1-(2-((3R,4R)-3-amino-4-fluoropiperidin-1-yl)-5,6-difluoro-1H-benzo[d]imidazol-1-yl)ethyl)benzonitrile] | 101 nM |
| CC(c1ccc(C#N)cc1)n1c(N2CCC[C@H](N)C2)nc2ccccc21 (mixture of isomers) [Example 399, 4-(1-(2-((S)-3-aminopiperidin-1-yl)-1H-benzo[d]imidazol-1-yl)ethyl)benzonitrile] | 20.5 nM |
| N[C@@H]1CN(c2nc3cc(F)c(F)cc3n2CC(=O)N2CCCC(C(F)(F)F)C2)CC[C@H]1F (mixture of isomers) [Example 504, 2-(2-((3R,4R)-3-amino-4-fluoropiperidin-1-yl)-5,6-difluoro-1H-benzo[d]imidazol-1-yl)-1-(3-(trifluoromethyl)piperidin-1-yl)ethan-1-one] | 39.3 nM |
| CC1CN(C(=O)Cn2c(N3CC[C@@H](F)[C@H](N)C3)nc3cc(F)c(F)cc32)CCO1 (mixture of isomers) [Example 507] | 102 nM |
| N[C@@H]1CN(c2nc3cc(F)c(F)cc3n2CC(=O)N(c2ccccc2)C2C=CS(=O)(=O)C2)CC[C@H]1F (mixture of isomers) [Example 515, 2-(2-((3R,4R)-3-amino-4-fluoropiperidin-1-yl)-5,6-difluoro-1H-benzo[d]imidazol-1-yl)-N-(1,1-dioxido-2,3-dihydrothiophen-3-yl)-N-phenylacetamide] | 186 nM |
| N[C@@H]1CN(c2nc3cc(F)c(F)cc3n2CC(=O)N(Cc2cccs2)C2CCS(=O)(=O)C2)CC[C@H]1F (mixture of isomers) [Example 522, 2-(2-((3R,4R)-3-amino-4-fluoropiperidin-1-yl)-5,6-difluoro-1H-benzo[d]imidazol-1-yl)-N-(1,1-dioxidotetrahydrothiophen-3-yl)-N-(thiophen-2-ylmethyl)acetamide] | 762 nM |
| N[C@@H]1CN(c2nc3cc(F)c(F)cc3n2CC(=O)N2CCC3CCCCC3C2)CC[C@H]1F (mixture of isomers) [Example 523, 2-(2-((3R,4R)-3-amino-4-fluoropiperidin-1-yl)-5,6-difluoro-1H-benzo[d]imidazol-1-yl)-1-(octahydroisoquinolin-2(1H)-yl)ethan-1-one] | 988 nM |
| CN(C(=O)Cn1c(N2CC[C@@H](F)[C@H](N)C2)nc2cc(F)c(F)cc21)C1CCS(=O)(=O)C1 (mixture of isomers) [Example 525, 2-(2-((3R,4R)-3-amino-4-fluoropiperidin-1-yl)-5,6-difluoro-1H-benzo[d]imidazol-1-yl)-N-(1,1-dioxidotetrahydrothiophen-3-yl)-N-methylacetamide] | 1780 nM |
| CCN(C(=O)Cn1c(N2CC[C@@H](F)[C@H](N)C2)nc2cc(F)c(F)cc21)C1CCS(=O)(=O)C1 (mixture of isomers) [Example 527, 2-(2-((3R,4R)-3-amino-4-fluoropiperidin-1-yl)-5,6-difluoro-1H-benzo[d]imidazol-1-yl)-N-(1,1-dioxidotetrahydrothiophen-3-yl)-N-ethylacetamide] | 3010 nM |
| NC(=O)C1CCCN(C(=O)Cn2c(N3CC[C@@H](F)[C@H](N)C3)nc3cc(F)c(F)cc32)C1 (mixture of isomers) [Example 530, 1-(2-(2-((3R,4R)-3-amino-4-fluoropiperidin-1-yl)-5,6-difluoro-1H-benzo[d]imidazol-1-yl)acetyl)piperidine-3-carboxamide] | > 3750 nM |
| N[C@@H]1CN(c2nc3cc(F)c(F)cc3n2CC(=O)N2CCC3CC32)CC[C@H]1F (mixture of isomers) [Example 609, 2-(2-((3R,4R)-3-amino-4-fluoropiperidin-1-yl)-5,6-difluoro-1H-benzo[d]imidazol-1-yl)-1-(2-azabicyclo[3.1.0]hexan-2-yl)ethanone] | 20.3 nM |
| CC(CC#N)N(C)C(=O)Cn1c(N2CC[C@@H](F)[C@H](N)C2)nc2cc(F)c(F)cc21 (mixture of isomers) [Example 612, 2-(2-((3R,4R)-3-amino-4-fluoropiperidin-1-yl)-5,6-difluoro-1H-benzo[d]imidazol-1-yl)-N-(1-cyanopropan-2-yl)-N-methylacetamide] | 22.4 nM |
| CC(N(C)C(=O)Cn1c(N2CC[C@@H](F)[C@H](N)C2)nc2cc(F)c(F)cc21)C(F)(F)F (mixture of isomers) [Example 614, 2-(2-((3R,4R)-3-amino-4-fluoropiperidin-1-yl)-5,6-difluoro-1H-benzo[d]imidazol-1-yl)-N-methyl-N-(1,1,1-trifluoropropan-2-yl)acetamide] | 24.8 nM |
| N[C@@H]1CN(c2nc3cc(F)c(F)cc3n2CC(=O)N2CCOC3CCOCC32)CC[C@H]1F (mixture of isomers) [Example 620, 2-(2-((3R,4R)-3-amino-4-fluoropiperidin-1-yl)-5,6-difluoro-1H-benzo[d]imidazol-1-yl)-1-(hexahydropyrano[4,3-b][1,4]oxazin-4(7H)-yl)ethanone] | 60.4 nM |
| CC(C#N)CN(C)C(=O)Cn1c(N2CC[C@@H](F)[C@H](N)C2)nc2cc(F)c(F)cc21 (mixture of isomers) [Example 621, 2-(2-((3R,4R)-3-amino-4-fluoropiperidin-1-yl)-5,6-difluoro-1H-benzo[d]imidazol-1-yl)-N-(2-cyanopropyl)-N-methylacetamide] | 75.3 nM |
